Reference: ChEMBL document CHEMBL1141256, “Panaxadiol glycosides that induce neuronal differentiation in neurosphere stem cells” (2007)
Active and inactive are the calls of the source. No cut-off for these calls is given here.

Experiments:
[1] = Neurogenesis in TUJ+MAP2+ mouse neural stem cells at 8 uM for 24 hrs relative to control
[2] = Neurogenesis in GFAP+ mouse neural stem cells at 8 uM after 24 hrs relative to control
[3] = Neurogenesis in TOPRO+ mouse neural stem cells at 8 uM after 24 hrs relative to control
Neural stem cell [4] = experiment: Decrease in number of neurons in TUJ/MAP2+ mouse neural stem cells at 15 uM
Neural stem cell [5] = experiment: Inhibition of calcium induced neurogenesis in mouse neural stem cells in presence of 10 uM nifedipine
Neural stem cell [6] = experiment: Increase in calcium concentration in mouse neural stem cells at 5 uM assessed as […] ratio F350/F380; settings: TDE = time-dependent effect
Neural stem cell [7] = experiment: Neurogenesis of TUJ/MAP2+ mouse neural stem cells at 8 uM afte 12, 24, 48 hrs
Neural stem cell [8] = experiment: Decrease in number of neurons in TUJ/MAP2+ mouse neural stem cells at 8 uM after 72 hrs
Neural stem cell [9] = experiment: Neuronal differentiation in TUJ/MAP2+ EGF responsive mouse neural stem cells at 1 to 8 uM after 72 hrs
[10] = Neurogenesis of TUJ/MAP2+ mouse neural stem cells at 8 uM in presence of 5 uM nifedipine assessed as calcium influx relative to control
[11] = Neurogenesis of TUJ/MAP2+ mouse neural stem cells at 8 uM assessed as calcium influx relative to control
[12] = Neurogenesis in TOPRO+ mouse neural stem cells at 1 uM relative to control
[13] = Neurogenesis in GFAP+ mouse neural stem cells at 1 uM relative to control
[14] = Neurogenesis in TUJ+MAP2+ mouse neural stem cells at 1 uM relative to control

Structure (SMILES)	Activity [1]	Activity [2]	Activity [3]	Activity (Neural stem cell [4])	Activity (Neural stem cell [5])	Activity (Neural stem cell [6])	Activity (Neural stem cell [7])	Activity (Neural stem cell [8])	Activity (Neural stem cell [9])	Activity [10]	Activity [11]	Activity [12]	Activity [13]	Activity [14]
CC(C)=CCC[C@](C)(O)[C@H]1CC[C@]2(C)[C@@H]1[C@H](O)C[C@@H]1[C@@]3(C)CC[C@H](O[C@@H]4O[C@H](CO)[C@@H](O)[C@H](O)[C@H]4O[C@@H]4O[C@H](CO)[C@@H](O)[C@H](O)[C@H]4O)C(C)(C)[C@@H]3CC[C@]12C	16.1%	35.9%	140%											
CC(C)=CC/C=C(\C)[C@H]1CC[C@]2(C)[C@@H]1[C@H](O)C[C@@H]1[C@@]3(C)CC[C@H](O[C@@H]4O[C@H](CO)[C@@H](O)[C@H](O)[C@H]4O[C@@H]4O[C@H](CO)[C@@H](O)[C@H](O)[C@H]4O)C(C)(C)[C@@H]3CC[C@]12C [GINSENOSIDE RG5]	30.5%	25.2%	132%	Active	Active	tde	Active	Active	Active	4%	29.6%			
C=C(CCC=C(C)C)[C@H]1CC[C@]2(C)[C@@H]1[C@H](O)C[C@@H]1[C@@]3(C)CC[C@H](O[C@@H]4O[C@H](CO)[C@@H](O)[C@H](O)[C@H]4O[C@@H]4O[C@H](CO)[C@@H](O)[C@H](O)[C@H]4O)C(C)(C)[C@@H]3CC[C@]12C [GISENOSIDE RK1]	28.4%	28.8%	107%											
CC1=C(/C=C/C(C)=C/C=C/C(C)=C/C(=O)O)C(C)(C)CCC1 [TRETINOIN]												148%	36.3%	16.5%
